Test results from patent publication US4537924A, “Quadratic acid amide derivatives, their use as stabilizers, and synthetic resins treated therewith” (Chemische Werke Huels, AG, priority 1982, dated 1985).
Converted amounts (≈) assume the structure as drawn. Like-named read-outs stand apart in the source and are kept apart here.

Legend:
[1] = Extraction of stabilizers from polyamide 12 with boiling organic solvents; format: physicochemical; settings: 0.25% by weight stabilizer
Description: (a) Polyamide 12 (Number Average Mol. Wt. 30,000: Producer: Chemische Werke Hus AG, D-4370 Marl)
In a pug mill, polyamide 12 granules were combined with quadratic acid bisamides, and the resultant mixture was homogenized in a twin screw extruder. The granulated material obtained in this way was then molded into panels having a thickness of 1 mm, and chips of 30×10 mm were then cut therefrom.
(§1) The solubility values in water and dilute acetic acid (Tables 2 and 3), as well as the extraction values (Tables 4 and 7) confirm the low migrating tendency of the compounds according to the present invention.

[2] = Volatility of pure compound by thermogravimetric determination; format: physicochemical; settings: heating-up rate 10° C./min; for Volatility: temperature at weight drop of 2%: weight drop 2%; for Volatility: temperature at weight drop of 50%: weight drop 50%; for Volatility: temperature at weight drop of 80%: weight drop 80%
Protocol: To test volatility, the quadratic acid bisamides or the synthetic resins treated therewith were subjected to thermogravimetric determination (cf. Tables 1 and 6). The heating-up rate was 10° C./min. A DuPont 950 Thermogravimetric Analyzer was applied.

[3] = Light exposure test (buckling test) with stabilizers in polyamide 12
[4] = Volatility (sublimation) of stabilizers from polyether esters; format: physicochemical; settings: from polyether ester; 195° C. and 0.1 mbar; 0.5% by weight
[5] = Extraction of stabilizers from polyether esters with boiling organic solvents; format: physicochemical; settings: from polyether ester
Description: (b) Polyether Esters (Number Average Mol. Wt. 25,000)
Into a polyether ester melt based on terephthalic acid, 1,4-butanediol, and polytetrahydrofuran, 0.5% by weight of the respective quadratic acid amide was introduced. After processing into granules, the latter were used to make press-molded panels of a thickness of 1 mm, from which chips were cut of 30×10 mm.
as §1

[6] = Light exposure test (buckling test) with stabilizers in polypropylene
[7] = Solubility of pure compound in 10% acetic acid; format: physicochemical; settings: 22° C.; for solubility: 10% acetic acid
Description: as §1

[8] = Solubility of pure compound in water; format: physicochemical
Description: as §1

[9] = with costabilizer mixture (benzotriazole, hexamethylenediamine phenol, phosphite; 0.25% each), 0.25% by wt. stabilizer (for salts: refers to the bisamide)
[10] = without costabilizer, 0.25% by wt. stabilizer (for salts: refers to the bisamide on which the salt is based)

Structure (SMILES)	Stabilizing effect in polyamide 12, light exposure to break [3, 9]	Stabilizing effect in polyamide 12, light exposure to break [3, 10] [h]	solubility ([8]; 22° C.) [µg/mL]	solubility ([8]; 100° C.) [µg/mL]	also measured
CC1(C)CC2(CC(C)(C)N1)OC1(CCCCCCCCCCC1)NC2=O [B, 2,2,4,4-tetramethyl-3,20-diaza-7-oxa-21-oxodispiro[5,1,11,2]heneicosane]					Degree of extraction after 8 hour treatment ([1]; boiling chloroform): 97.2 % of Maximally Extractable Amo; Degree of extraction after 8 hour treatment ([1]; boiling methanol): 83.1 % of Maximally Extractable Amo; Volatility: temperature at weight drop of 2% [2]: 200 °C; Volatility: temperature at weight drop of 50% [2]: 280 °C; Volatility: temperature at weight drop of 80% [2]: 300 °C
CCN(CC)c1c([O-])c(=[N+](CC)CC)c1=O [C, 1,3-Bis(diethylamino)cyclobutenediylium-2,4-diolate, reference compound]	511 h	460			
CC1(C)CC(OC(=O)CCCCCCCCC(=O)OC2CC(C)(C)NC(C)(C)C2)CC(C)(C)N1 [Comparative Example A, sebacic acid di-4-hydroxy-2,2,6,6-tetramethylpiperidine ester]					Degree of sublimation after 24-hour treatment [4]: 88 % of Maximally Sublimable Quan; Degree of extraction after 8 hour treatment ([1]; boiling chloroform): 69.9 % of Maximally Extractable Amo; Degree of extraction after 8 hour treatment ([1]; boiling methanol): 68.7 % of Maximally Extractable Amo; Degree of extraction after 8-hour treatment ([5]; methanol (65° C.)): 60 % of Maximally Extractable Qua; Degree of extraction after 8-hour treatment ([5]; toluene (110° C.)): 53 % of Maximally Extractable Qua; Stabilizing effect in polypropylene, light exposure to break ([6]; 0.2% by wt. stabilizer): 277 h; solubility [7]: 402000 µg/mL (≈ 836000 µM); Volatility: temperature at weight drop of 2% [2]: 220 °C; Volatility: temperature at weight drop of 50% [2]: 285 °C; Volatility: temperature at weight drop of 80% [2]: 300 °C
C[C@@H]1CN(c2c([O-])c(=[N+]3C[C@@H](C)O[C@@H](C)C3)c2=O)C[C@H](C)O1 [E, 1,3-Bis(cis-2,6-dimethylmorpholino)cyclobutenediylium-2,4-diolate, reference compound]	473 h	432			
CC1(C)CC(N=c2c(O)c(NC3CC(C)(C)NC(C)(C)C3)c2=O)CC(C)(C)N1 [Example 1, 1,3-Bis[2,2,6,6-tetramethyl-4-piperidylamino]cyclobutenediylium-2,4-diolate]	1,076 h	790	< 20	150 (≈ 384 µM)	
CC1(C)CC(N=c2c(O)c(NC3CC(C)(C)NC(C)(C)C3)c2=O)CC(C)(C)N1 [Example 1.1, 1,3-bis[2,2,6,6-tetramethyl-4-piperidylamino]cyclobutenediylium-2,4-diolate]					Solubility of pure compound in 10% acetic acid [7]: 4.6 g/100 g 10% HAc
CC1(C)CC(N=c2c(O)c(NC3CC(C)(C)NC(C)(C)C3)c2=O)CC(C)(C)N1 [Example 1.2, 1,3-bis[2,2,6,6-tetramethyl-4-piperidylamino]cyclobutenediylium-2,4-diolate]	1,120 h	780			Solubility of pure compound in 10% acetic acid [7]: 2.4 g/100 g 10% HAc
CC1(C)CC(N=c2c(O)c(NC3CC(C)(C)NC(C)(C)C3)c2=O)CC(C)(C)N1 [Example 1.3, 1,3-bis[2,2,6,6-tetramethyl-4-piperidylamino]cyclobutenediylium-2,4-diolate]	976 h	683			Solubility of pure compound in 10% acetic acid [7]: 5.0 g/100 g 10% HAc
CC1(C)CC(N=c2c(O)c(NC3CC(C)(C)NC(C)(C)C3)c2=O)CC(C)(C)N1 [Example 1.4, 1,3-bis[2,2,6,6-tetramethyl-4-piperidylamino]cyclobutenediylium-2,4-diolate]					Solubility of pure compound in 10% acetic acid [7]: < 0.1 g/100 g 10% HAc
CC1(C)CC(N=c2c(O)c(NC3CC(C)(C)NC(C)(C)C3)c2=O)CC(C)(C)N1 [Example 1.5, 1,3-bis[2,2,6,6-tetramethyl-4-piperidylamino]cyclobutenediylium-2,4-diolate]	1,121 h	720			Solubility of pure compound in 10% acetic acid [7]: 0.9 g/100 g 10% HAc
CCCCN(c1c([O-])c(=[N+](CCCC)C2CC(C)(C)NC(C)(C)C2)c1=O)C1CC(C)(C)NC(C)(C)C1 [Example 3, 1,3-Bis[N-n-butyl-N-(2,2,6,6-tetramethyl-4-piperidyl)amino]cyclobutenediylium-2,4-diolate]			< 100	800 (≈ 1590 µM)	
CC(C)CN(c1c([O-])c(=[N+](CC(C)C)C2CC(C)(C)NC(C)(C)C2)c1=O)C1CC(C)(C)NC(C)(C)C1 [Example 4, 1,3-Bis[N-isobutyl-N-(2,2,6,6-tetramethyl-4-piperidyl)amino]cyclobutenediylium-2,4-diolate]			< 100	700 (≈ 1390 µM)	
CCCCCCN(c1c([O-])c(=[N+](CCCCCC)C2CC(C)(C)NC(C)(C)C2)c1=O)C1CC(C)(C)NC(C)(C)C1 [Example 5, 1,3-Bis[N-n-hexyl-(2,2,6,6-tetramethyl-4-piperidyl)amino]cyclobutenediylium-2,4-diolate]			< 100	300 (≈ 537 µM)	
CCCCCCCCN(c1c([O-])c(=[N+](CCCCCCCC)C2CC(C)(C)NC(C)(C)C2)c1=O)C1CC(C)(C)NC(C)(C)C1 [Example 6, 1,3-Bis[N-n-octyl-N-(2,2,6,6-tetramethyl-4-piperidyl)amino]cyclobutenediylium-2,4-diolate]			< 100	200 (≈ 325 µM)	
CC1(C)CC(N(CCO)c2c([O-])c(=[N+](CCO)C3CC(C)(C)NC(C)(C)C3)c2=O)CC(C)(C)N1 [Example 7, 1,3-Bis[N-2-hydroxyethyl-N-(2,2,6,6-tetramethyl-4-piperidyl)amino]cyclobutenediylium-2,4-diolate]					Stabilizing effect in polypropylene, light exposure to break [6]: 375 h
CC1(C)CC(OCCCN=c2c(O)c(NCCCOC3CC(C)(C)NC(C)(C)C3)c2=O)CC(C)(C)N1 [Example 9, 1,3-Bis[2,2,6,6-tetramethyl-4-piperidyloxypropylamino]cyclobutenediylium-2,4-diolate]	1,135 h	820	2400 (≈ 4740 µM)	9500 (≈ 18700 µM)	
CC(CO)N=c1c(O)c(NC(C)CO)c1=O (stereo not drawn) [F, 1,3-Bis[(2-hydroxy-1-methylethyl)amino]cyclobutenediylium-2,4-diolate, reference compound]					solubility [7]: 222000 µg/mL (≈ 973000 µM)
O=c1c(N2CCCCC2)c([O-])c1=[N+]1CCCCC1 [G, 1,3-Bispiperidinocyclobutenediylium-2,4-diolate, reference compound]	619 h	530			Stabilizing effect in polypropylene, light exposure to break ([6]; 0.2% by wt. stabilizer): 212 h
